Structures can show the parent of a compound that is named as a salt.
How the values were obtained:
murine marcophage cells = assay: Chemotaxis assay (migration of macrophages toward complement-derived chemoattractant); assay type: cell-based
Protocol: In this assay, done according to the methods of R. Synderman et al., Infection & Immunity, 11, p. 488-492 (1975) and M. S. Meltzer et al., J. Natl. Cancer Inst., 54, p. 795-799 (1975), the ability of a drug substance to influence the movement of cells responding to a stimulus induced by some foreign substance or injury is determined. This is vitro assay utilizes a chemoattractant, derived from a component of the immunological system known as complement, to induce murine marcophage cells to migrate toward it. The effect of a drug substance on such movements can be measured by counting the cells. […] For example, the compound of Example 15 stimulates migration by 35.6% at 10^-8 molar concentration and is thus immunoenhancing.

[1] = test system: antibody secreting cells in the spleen; assay: Kennedy Plaque Assay (humoral immune system depressed by 6-mercaptopurine; number of plaques); assay type: in vivo; conditions: for change in vivo at 6.25 mg/kg: ip, 60 mg/Kg of 6 MP plus 6.25 mg/Kg (i.p.) of compound, read-out: Percent Restoration (+) or Suppression (-)
Protocol: In this assay, in which the in vitro model used was the Kennedy modification of the Jerne (or plaque) technique (J. C. Kennedy et al, Immunol., 20, p. 253 (1971)), the animal's humoral immune system is depressed artificially by the known immunosuppressant drug, 6-mercaptopurine (6-MP), and then the ability of a drug to either suppress it further or restore it towards normal is evaluated. The change in the number of plaques, which is a direct correlate of the change in the number of antibody secreting cells in the spleen, is used to measure this effect. For example, the compound of Example 11 results in greater than 100% restoration of the number of plaques and thus causes an immunoenhancement of the humoral system. In contrast, the compound of Example 28 results in about 24% further suppression of the number of plaques and thus behaves as an immunosuppressant.
of 6 MP plus 6.25 mg/Kg (i.p.)
^1 without 6MP treatment
^2 percent change from control (i.e., without 6MP)

mouse hepatitis virus = assay: Antiviral assay - hepatitis in mice; assay type: in vivo; conditions: once daily for 3 days; for Mean Liver Score: day 4, 0 (normal) to 4 (extreme discoloration); for Percent Survival: day 21
Protocol: Female mice weighing approximately 21-24 grams were inoculated with 0.1 ml of a mouse liver suspension containing mouse hepatitis virus, which liver suspension is at a dilution of 10^-5.5. Starting twenty-four hours post-virus inoculation, the animals were intraperitoneally ("i.p.") or orally administered the test compound(s) once daily for 3 days. On day 4, one third to one half of each group of mice were sacrificed and their liver removed for examination. Each liver was scored and assigned a number from 0 (normal liver) to 4 (extreme discoloration). The mean liver score per group was computed. The number of animals surviving until termination of the study (day 21) was also recorded. Anti-hepatitis activity is evidenced by increased survivor numbers and improved liver scores.

[2] = test system: carrageenan-induced paw edemas; assay: Anti-inflammatory assay, carrageenan-induced paw edema; assay type: in vivo, Male, Sprague-Dawley rats; conditions: 50 mg/Kg p.o.; dosed two hours before carrageenan
Protocol: The anti-inflammatory properties of various compounds of this invention were determined by carrageenan-induced paw edemas of test rats. Male, Sprague-Dawley rats (Blue Spruce Farm) were ordered at 125-140 g, housed for one week, and allowed food and water ad libitum. At the time of the experiments, only rats weighing 160-200 g were used.
All compounds were dissolved or suspended in a 0.5% water solution of Methocel and orally administered to groups of six rats each. Control rats received Methocel only. Two hours later (unless otherwise stated), paw edema was induced by subcutaneous injection into the plantar surface of the right hind paw of 0.1 ml of a 1.0% homogenized suspension of carrageenan.
Immediately, the volume of the paw was measured by immersing it in mercury to above the lateral mateolus. The mercury in a glass cylinder 25 mm in diameter and 60 mm deep was connected at the bottom on the cylinder by a column of water to a Statham transducer (model P23BB), range 0-5 cm of mercury pressure. The volume was recorded electronically on a Beckman recorder, R511. Three hours later, the inflamed paw volume was measured again, and the change in volume was recorded for each group. The percent inhibition of edema was calculated using the control group paw volume as 100% edema, i.e., as (the change in edema in the control group less the change in edema in the test group) times 100 divided by the change in edema in the control group.

[3] = 12.5 mg/Kg i.p., control 2.6 (Examples 11, 16, 23), 3.4 (25, 26)
[4] = 12.5 mg/Kg i.p., control 5% (Examples 11, 16, 23), 6% (25, 26)
[5] = 25 mg/Kg i.p., control 2.6 (Examples 11, 23), 3.4 (25, 26)
[6] = 25 mg/Kg i.p., control 5% (Examples 11, 23), 6% (25, 26)

For c1ccc(CSC2CCCN3CC(c4ccccc4)N=C23)cc1 (stereo not drawn) [Example 14, 2,3,5,6,7,8-Hexahydro-2-phenyl-8-benzylthioimidazo[1,2-a]pyridine fumarate (1:1) salt], the “Percent Inhibition (-) or Enhancement (+) of migration” value (“Percent Inhibition (-) or Enhancement” below) (murine marcophage cells; 10^-5 m) was -29.1%, the “Percent Inhibition (-) or Enhancement” value (murine marcophage cells; 10^-7 m) was -51.0% and the “Percent Inhibition (-) or Enhancement” value (murine marcophage cells; 10^-8 m) was -51.0%. The “Percent Inhibition (-) or Enhancement” value (murine marcophage cells; 10^-9 m) was -50.7%, the “Percent Inhibition (-) or Enhancement” value (murine marcophage cells; 10^-10 m) was -10.2% and the “Percent Inhibition (-) or Enhancement” value (murine marcophage cells; 10^-11 m) was -44.5%.

COc1ccc(CSC2CCCN3CC(c4ccccc4)N=C23)cc1 (stereo not drawn) [Example 15, 2,3,5,6,7,8-Hexahydro-2-phenyl-8-p-methoxybenzylthioimidazo[1,2-a]pyridinefumarate (1:1) salt] was tested, and the “Percent Inhibition (-) or Enhancement” value (murine marcophage cells; 10^-5 m) was “+2.6%”, the “Percent Inhibition (-) or Enhancement” value (murine marcophage cells; 10^-7 m) was “+30.1%” and the “Percent Inhibition (-) or Enhancement” value (murine marcophage cells; 10^-8 m) was “+35.6%”. The “Percent Inhibition (-) or Enhancement” value (murine marcophage cells; 10^-9 m) was “+31.8%”, the “Percent Inhibition (-) or Enhancement” value (murine marcophage cells; 10^-10 m) was “+33.8%” and the “Percent Inhibition (-) or Enhancement” value (murine marcophage cells; 10^-11 m) was -1.2%. It also gave an activation at 0.01 µM (murine marcophage cells; Mus musculus, Macrophage, 10^-8 molar concentration, read-out: stimulates migration) of 35.6% and a change in vivo at 6.25 mg/kg [1] of 54%.

With CSC1(SC)CCCN2CC(c3ccccc3)N=C21 (stereo not drawn) [Example 16, 2,3,5,6,7,8-Hexahydro-2-phenyl-8,8-di(methylthio)imidazo[1,2-a]pyridine hydrochloride] the change in vivo at 6.25 mg/kg [1] was -25%, the “Mean Liver Score” value (mouse hepatitis virus; 6.25 mg/Kg i.p., control 2.6) was 1.5 and the “Percent Survival” value (mouse hepatitis virus; 6.25 mg/Kg i.p., control 5%) was 60%. For the same molecule, the “Mean Liver Score” value (mouse hepatitis virus; [3]) was 2.0 and the “Percent Survival” value (mouse hepatitis virus; [4]) was 90%.

In the case of c1ccc(SC2(Sc3ccccc3)CCCN3CC(c4ccccc4)N=C32)cc1 (stereo not drawn) [Example 17, 2,3,5,6,7,8-Hexahydro-2-phenyl-8,8-di(phenylthio)imidazo[1,2-a]pyridine fumarate], the “percent change from control (i.e., without 6MP)” value ([1]; without 6MP treatment, 6.25 mg/Kg (i.p.) of compound) was -37% and the “Percent Inhibition of carrageenan induced edema” value [2] was 38.6%.

For CC(C)SC1CCCN2CC(c3ccccc3)N=C12 (stereo not drawn) [Example 18, 2,3,5,6,7,8-Hexahydro-2-phenyl-8-i-propylthioimidazo[1,2-a]pyridine sulfate], the change in vivo at 6.25 mg/kg [1] was 97% and the “Percent Inhibition of carrageenan induced edema” value [2] was 40.4%.

With COC1(OC)CCN2CC(c3ccccc3)N=C21 (stereo not drawn) [Example 25, 2,5,6,7-Tetrahydro-2-phenyl-7,7-dimethoxy-3H-pyrrolo[1,2-a]imidazole sulfate] the “Mean Liver Score” value (mouse hepatitis virus; [3]) was 2.6, the “Percent Survival” value (mouse hepatitis virus; [4]) was 0% and the “Mean Liver Score” value (mouse hepatitis virus; [5]) was 1.1. The “Percent Survival” value (mouse hepatitis virus; [6]) was 0%, the “Mean Liver Score” value (mouse hepatitis virus; 50 mg/Kg i.p., control 3.4) was 1.2 and the “Percent Survival” value (mouse hepatitis virus; 50 mg/Kg i.p., control 6%) was 0%.

With COC1(OC)CCCN2C1=NCC2c1ccccc1 (stereo not drawn) [Example 26, 2,3,5,6,7,8-Hexahydro-3-phenyl-8,8-dimethoxy imidazo[1,2-a]pyridine hydrochloride] the “Mean Liver Score” value (mouse hepatitis virus; [3]) was 2.7, the “Percent Survival” value (mouse hepatitis virus; [4]) was 0% and the “Mean Liver Score” value (mouse hepatitis virus; [5]) was 2.3. The “Percent Survival” value (mouse hepatitis virus; [6]) was 0%.

For [O-][S+](c1ccccc1)C1CCCN2CC(c3ccccc3)N=C12 (stereo not drawn) [Example 28, 2,3,5,6,7,8-Hexahydro-2-phenyl-8-phenylsulfinylimidazo[1,2-a]pyridine sulfate], the change in vivo at 6.25 mg/kg [1] was -24% and the “further suppression of the number of plaques” value ([1]; with 6-MP) was “about 24%”.

c1ccc(SC2(Sc3ccccc3)CCCn3cc(-c4ccccc4)nc32)cc1 [Example 33, 5,6,7,8-Tetrahydro-2-phenyl-8,8-diphenylthio imidazo[1,2-a]pyridine] showed a change in vivo at 6.25 mg/kg [1] of 25%.

Source: US4560758A, “Process for preparing pyrrolo[1,2-a]imidazoles and imidazo[1,2-a]pyridines” (Pennwalt Corporation, priority 1984, dated 1985)
